Measured values published in patent publication US12358931B2, “3-((1R,3s,5S)-3-((7-((5-methyl-1H-pyrazol-3-yl)amino)-1,6-naphthyridin-5-yl)amino)-8-azabicyclo[3.2.1]octan-8-yl) propanenitrile as a JAK kinase inhibitor” (priority 2015, dated 2025).

How the values were obtained:
[1] = Pharmacokinetics in plasma and the GI tract in rats; format: in vivo, Sprague Dawley rats; conditions: oral dosing in preclinical species
Method: A test compound was dosed to male Sprague Dawley rats (n=3) as described in Assay 5. […] At all time points, the plasma concentration was below the limit of quantitation of 0.001 μg/mL.

[2] = tested on: oxazolone-induced colitis; experiment: Mouse model of oxazolone-induced colitis; format: in vivo, BALB/C mice; conditions: PO, 1, 3, and/or 10 mg/kg BID
Method: Oxazolone-induced colitis is an experimental model that has a histological resemblance to human ulcerative colitis (Heller et al. […], 2002, 17, 629-638). Adult BALB/C mice from Harlan were used in the assay. On day 1, animals were lightly anesthetized with isoflurane and the hairs between the shoulder were carefully removed before oxazolone (4%, 150 μL, 4:1 acetone: olive oil formulation) or vehicle solution was slowly applied for skin sensitization. Seven days after skin sensitization, the mice were fasted overnight, anesthetized with isoflurane inhalation, and a 1 mL syringe equipped with a 3.5-F catheter, filled with oxazolone solution, was inserted carefully about 4 cm into the colon of the mouse. Following insertion, 50 μL of the oxazolone solution (1%, 1:1 ethanol:water formulation) was injected very slowly (over 30 sec using an injection pump) into the colon. […] Two-day post oxazolone intrarectal challenge, the Disease Activity Index (DAI) was assessed by treatment-blinded experimenters for each mouse according to the criteria score: stool consistency score (0, normal; 2, loose; 4, diarrhea), gross bleeding score (0, absence; 2, blood tinged; 4, presence), and weight loss score (0, none; 1, 1%-5%; 2, 5%-10%; 3, 10%-20%; 4, more than 20%); DAI=average of (stool consistency score+gross bleeding score+weight loss score). […]

[3] = tested on: mouse splenic NK, B and T cells; experiment: Immunosuppression effects in mouse splenic natural killer (NK) cells; format: in vivo, Balb/C mice; conditions: for B and T cell populations: mouse spleen; for B and T cell populations / splenic NK cell counts: PO BID three days; for splenic NK cell counts: Example 1 up to 100 mg/kg, tofacitinib 30 mg/kg
Method: Depletion of mouse splenic cells is an experimental model of immunosuppression (Kudlacz et al., Am. J. of Transplantation, 2004, 4, 51-57). […] Adult male Balb/C mice (12-14 weeks of age) from Harlan were used for the study. […] Spleens were harvested 1 or 2 h post last dose and crushed immediately for cell subtype staining. Prior to fixation, fluorophore-labelled antibodies for CD19 (FITC; B cells), CD3e (PE; pan T cells) and DX5 (APC; NK cells) were incubated with splenocyte samples from each animal to allow for simultaneous, multiple subtype % analysis on the flow cytometer. The number of total spleen cells for each animal was measured by Scepter™ 2.0 Handheld Automated Cell Counter. The absolute number of lymphocyte subtype population (e.g., splenic B, T and NK cells) was calculated from the percentage of each subtype times total spleen cells for each animal. A one way ANOVA, with Dunnett's post hoc test, was used to compare the splenic lymphocytes number of the vehicle and test compound groups. The a level was set at p<0.05. Data were presented as the mean±SEM for each group.

[4] = First in human study of safety, tolerability and pharmacokinetics in healthy subjects; format: in vivo; conditions: suggested by comparison with other orally administered compounds
Method: The compound of Example 1 was evaluated in a double-blinded, randomized, placebo-controlled, single ascending dose (SAD) and multiple ascending dose (MAD) study of safety, tolerability, and pharmacokinetics in healthy subjects. Pharmacokinetic samples were collected up to 72 hours post the final dose in both the SAD study (after the first dose) and MAD study (after 14 days of once-daily dosing). The SAD study enrolled 5 cohorts and the MAD study enrolled 4 cohorts totaling 72 subjects, of which 71 completed the dosing period.
Plasma pharmacokinetic (PK) parameters were determined by non-compartmental analysis using WinNonLin Version 6.4.0 (Pharsight, St Louis, MO). The plasma PK parameter presented here is: • Cmax: maximum concentration in plasma

[5] = Method: A weighed sample was used and the humidity was lowest possible value (close to 0% RH) at the start of the analysis. The DMS analysis consisted of an initial drying step (0% RH) for 120 minutes, followed by two cycles of sorption and desorption with a scan rate of 5% RH/step over the humidity range of 5% RH to 90% RH. The DMS run was performed isothermally at 25° C.
[6] = Solid state stability assessment; format: physicochemical; design: unit not given here
Description: At specific intervals, the contents of a representative sample was removed and analyzed by HPLC for chemical purity and by Karl Fischer for water content.

Row | Compound | exposure throughout the gastrointestinal tract versus plasma [1] | decrease in DAI score as compared with vehicle treated animals [2] | B and T cell populations [3] | splenic NK cell counts ([3]; mouse) | effect of immunosuppression ([3]; mouse, same dose required for efficacy in the oxazolone model) | oral bioavailability [4] | weight change (gain) on moisture sorption ([5]; 5% to 90% relative humidity, room temperature, listed as Crystalline 3-(1R,3s,5S)-3-((7-((5-methyl-1H-pyrazol-3-yl)amino)-1,6-naphthyrid))) | hygroscopicity ([5]; two cycles of sorption and desorption) | RRT 0.96 ([6]; HPLC peak at RRT 0.96, T = 0) | RRT 0.96 ([6]; HPLC peak at RRT 0.96, T = 1 Month, 40° C./75% RH) | RRT 0.96 ([6]; HPLC peak at RRT 0.96, T = 3 Month, 25° C./60% RH) | RRT 0.96 ([6]; HPLC peak at RRT 0.96, T = 3 Month, 40° C./75% RH) | RRT 1.84 ([6]; HPLC peak at RRT 1.84, T = 0) | RRT 1.84 ([6]; HPLC peak at RRT 1.84, T = 1 Month, 40° C./75% RH) | RRT 1.84 ([6]; HPLC peak at RRT 1.84, T = 3 Month, 25° C./60% RH) | RRT 1.84 ([6]; HPLC peak at RRT 1.84, T = 3 Month, 40° C./75% RH)
1 | Cc1cc(Nc2cc3ncccc3c(N[C@@H]3C[C@H]4CC[C@@H](C3)N4CCC#N)n2)n[nH]1 [Example 1, 3-((1R,3s,5S)-3-((7-((5-methyl-1H-pyrazol-3-yl)amino)-1,6-naphthyridin-5-yl)amino)-8-azabicyclo[3.2.1]octan-8-yl)propanenitrile] | significantly higher exposure | demonstrated activity | No treatment effect | unaffected | minimal effect | very low | – | – | – | – | – | – | – | – | – | –
2 | C[C@@H]1CCN(C(=O)CC#N)C[C@@H]1N(C)c1ncnc2[nH]ccc12 [tofacitinib, reference compound] | – | – | No treatment effect | dose-dependently and significantly decreased | – | – | – | – | – | – | – | – | – | – | – | –
3 | Cc1cc(Nc2cc3ncccc3c(N[C@@H]3C[C@H]4CC[C@@H](C3)N4CCC#N)n2)n[nH]1 [Form I, 3-((1R,3s,5S)-3-((7-((5-methyl-1H-pyrazol-3-yl)amino)-1,6-naphthyridin-5-yl)amino)-8-azabicyclo[3.2.1]octan-8-yl)propanenitrile] | – | – | – | – | – | – | less than 0.15% | non-hygroscopic | 0.07 | 0.07 | 0.07 | 0.07 | 0.08 | 0.08 | 0.05 | 0.05
